Results taken from patent US8232407B2, “Nitrogenous heterocyclic compounds with insecticidal activity, and the preparation and use thereof” (East China University of Science and Technology, priority 2008, dated 2012).

Key:
Assay type in all cases: in vivo
Nilaparvata lugens = experiment: Insecticidal activities to plant hopper, spraying method; conditions: for Nilaparvata lugens Mortality (%) 500 ppm: in vivo
Method in brief: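 Nilaparvata lugens, 10 insects per tumbler, sprayed with 2 ml compound in acetone at 0.79-500 ppm, three replicates, aqueous acetone control. Dead insects counted after 24 h; mortality corrected against control survival.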

[1] = test system: Pseudaletia separate Walker; experiment: Insecticidal activities to armyworm, leaf dipping and feeding
Method in brief: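 Maize leaves dipped 3 s in acetone-formulated compound at 500 down to 1.57 ppm, dried and fed to armyworms, 10 insects per treatment in triplicate, aqueous acetone as control. Mortality was counted after 24 hours and corrected against control survival.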

Aphis craccivoral = experiment: Insecticidal activities to aphids, immersion method; conditions: for Aphis craccivoral Mortality (%) 500 ppm: in vivo
Method in brief: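 Wingless adult aphids feeding on bean sprouts were dipped 5 s in 500 ppm compound (DMF stock diluted in 0.2 mL/L aqueous Triton X-100), blotted and held at 23° C. Dead counted at 24 h, three replicates; mortality corrected against Triton-only controls.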

Plutella xylostella = experiment: Insecticidal activities to diamondback moth, feeding dipped leaves; conditions: for Plutella xylostella Mortality (%) 500 ppm: in vivo
Method in brief: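 Leaf-dip feeding assay: fresh cabbage leaves dipped 3 s in test solution, air-dried and fed to Plutella xylostella, 10 insects per treatment, three replicates, water control. Deaths counted after 24 h; mortality corrected against survival in the control group.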

Compound	Nilaparvata lugens Mortality (%) 500 ppm (Nilaparvata lugens) [%]	Pseudaletia separate Walker Mortality (%) 500 ppm ([1]; in vivo) [%]	Aphis craccivoral Mortality (%) 500 ppm (Aphis craccivoral) [%]	Plutella xylostella Mortality (%) 500 ppm (Plutella xylostella) [%]	mortality at 500 ppm (Nilaparvata lugens; Nilaparvata lugens, 24 h, read-out: Nilaparvata lugens Mortality (%) 500 ppm) [%]	Pseudaletia separate Walker Mortality (%) 500 ppm ([1]; 500 ppm, leaf dipping and feeding, counted after 24 hours) [%]	mortality at 500 ppm (Aphis craccivoral; Aphis, read-out: Aphis craccivoral Mortality (%) 500 ppm) [%]	mortality at 500 ppm (Plutella xylostella; Plutella xylostella, 24 h, read-out: Plutella xylostella Mortality (%) 500 ppm) [%]
CC[N+]1=C(C(=Cc2ccc([N+](=O)[O-])o2)[N+](=O)[O-])N(Cc2ccc(Cl)nc2)CC1.[Cl-] [Compound 287]	100	100	100	100				
Cc1coc(C=C(C2=[N+](C)CCN2Cc2ccc(Cl)nc2)[N+](=O)[O-])c1.[Cl-] [Compound 256]	100	100	100	100				
C[N+]1=C(C(=Cc2ccc(Cl)s2)[N+](=O)[O-])N(Cc2ccc(Cl)nc2)CC1.[Cl-] [Compound 262]	100	100	100	100				
O=[N+]([O-])C(=Cc1cc(Cl)cs1)C1=NCCCN1Cc1ccc(Cl)nc1 [Compound 66]	87	87	56	100				
CCc1ccc(C=C(C2=[N+](C)CCN2Cc2ccc(Cl)nc2)[N+](=O)[O-])s1.[Cl-] [Compound 272]	100	100	100	100				
C[N+]1=C(C(=Cc2ccc([N+](=O)[O-])s2)[N+](=O)[O-])N(Cc2cnc(Cl)s2)CC1.[Cl-] [Compound 282]	100	100	100	100				
CCc1ccc(C=C(C2=NCCN2Cc2ccc(Cl)nc2)[N+](=O)[O-])s1 [Compound 29]	100	100	100	100				
O=[N+]([O-])C(=Cc1ccc(Cl)s1)C1=NCCN1Cc1cnc(Cl)s1 [Compound 86]	100	100	100	100				
C[N+]1=C(C(=Cc2cc(Cl)c(Cl)o2)[N+](=O)[O-])N(Cc2ccc(Cl)nc2)CC1.[Cl-] [Compound 251]	100	100	100	100				
O=[N+]([O-])C(=Cc1cc(Br)c(Br)o1)C1=NCCN1CC1CCOC1 (centres unmarked) [Compound 100]	100	100	90	100				
CC[N+]1=C(C(=Cc2ccc([N+](=O)[O-])s2)[N+](=O)[O-])N(Cc2ccc(Cl)nc2)CC1.[Cl-] [Compound 293]	100	100	100	100				
CC(c1ccc(Cl)nc1)N1CCN=C1C(=Cc1ccoc1)[N+](=O)[O-] (racemic) [Compound 123]	100	100	100	100				
O=[N+]([O-])C(=Cc1cc(Cl)co1)C1=NCCCN1Cc1ccc(Cl)nc1 [Compound 51]	100	100	100	100				
O=[N+]([O-])C(=Cc1ccc([N+](=O)[O-])o1)C1=NCCN1Cc1ccccc1 [Compound 105]	100	98	80	90				
O=[N+]([O-])C(=Cc1ccc(Br)o1)C1=NCCN1Cc1ccc(Cl)nc1 [Compound 5]	100	100	100	100				
CC(=C(C1=NCCN1C(C)c1ccc(Cl)nc1)[N+](=O)[O-])c1ccc(Cl)o1 (racemic) [Compound 136]	100	100	100	100				
O=[N+]([O-])C(=Cc1cc(Cl)co1)C1=NCCN1Cc1cnc(Cl)s1 [Compound 73]	100	100	100	100				
O=[N+]([O-])C(=Cc1ccoc1)C1=NCCN1Cc1cnc(Cl)s1 [Compound 69]	100	100	100	100				
C[N+]1=C(C(=Cc2ccc(Cl)o2)[N+](=O)[O-])N(Cc2ccc(Cl)nc2)CC1.[Cl-] [Compound 247]	100	100	100	100				
O=[N+]([O-])C(=Cc1oc(Cl)cc1Cl)C1=NCCN1CC1CCOC1 (centres unmarked) [Compound 99]	97	100	87	100				
O=[N+]([O-])/C(=C/c1ccc([N+](=O)[O-])o1)C1=NCCN1Cc1cnc(Cl)s1 [Compound 70]					100	98	100	100
N#CC(=Cc1cc(Br)cs1)C1=NCCN1Cc1ccc(Cl)nc1 [Compound 148]	100	100	97	100				
Cc1ccc(C=C(C2=NCCN2Cc2ccc(Cl)nc2)[N+](=O)[O-])o1 [Compound 12]	100	100	100	100				
O=[N+]([O-])C(=Cc1cnc[nH]1)C1=NCCN1Cc1ccc(Cl)nc1 [Compound 36]	89	100	98	100				
CC[N+]1=C(C(=Cc2ccoc2)[N+](=O)[O-])N(Cc2ccc(Cl)nc2)CC1.[Cl-] [Compound 286]	100	100	100	100				
C[N+]1=C(C(=Cc2sc(Cl)cc2Cl)[N+](=O)[O-])N(Cc2ccc(Cl)nc2)CC1.[Cl-] [Compound 267]	100	100	100	100				
